The subject of assay [1] is KRas-mediated phosphorylation of ERK in H460 cells. The experiment in a line: Inhibition of KRas-mediated phosphorylation of ERK (Cisbio HTRF pERK), H460 cells. The format is cell-based. The conditions noted are these: Homo sapiens; for inhibition at 0.1 µM: NCI-H460, 3 h, single point, 100 nM compound, 3 hrs; for IC50: NCI-H460, HTRF pERK. Summed up:
(§1)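 Following a 3-hr exposure of cells to serially diluted compound (from 10 uM, 3-fold, 10 doses), cold lysis for 40 mins preceded a 2-hr room-temperature HTRF immunoassay for phosphorylated ERK.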

The test system of assay [2] is KRas-mediated phosphorylation of ERK in H727 cells. The experiment in a line: Inhibition of KRas-mediated phosphorylation of ERK (Cisbio HTRF pERK), H727 cells. The format is cell-based. To be noted: Homo sapiens, NCI-H727, H727 cells; HTRF pERK. The procedure, abridged:
as §1
A general note: In TR-FRET formats the signal depends on donor and acceptor labels being close together.

For assay [3], the target named is T1, KRas^G12V (Homo sapiens, UniProt P01116, G12V).
T1 construct: Biotinylated KRas (corresponding to amino acids 1-169, produced at Accelegan Inc.); biotin (biotinylated); purchased Accelegan Inc
T1 sequence (P01116 1-169 isoform P01116-2 G12V): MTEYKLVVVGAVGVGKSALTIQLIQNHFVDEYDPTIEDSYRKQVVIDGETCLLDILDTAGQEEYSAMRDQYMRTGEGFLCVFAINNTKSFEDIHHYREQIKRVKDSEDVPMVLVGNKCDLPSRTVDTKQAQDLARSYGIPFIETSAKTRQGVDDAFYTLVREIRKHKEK
Description: KRas binding assay (TR-FRET tracer displacement), KRas G12V.

The subject of assay [4] is KRas-mediated phosphorylation of ERK in A549 cells. Description: Inhibition of KRas-mediated phosphorylation of ERK (Cisbio HTRF pERK), A549 cells. The format is cell-based. To be noted: Homo sapiens, HTRF pERK. Summed up:
(§2)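 6,000 cells/well; cpd 10 uM top, 3-fold x10, 0.8% DMSO final; 3 hr incubation; Min ctrl Trametinib 0.2 uM; lysis 40 min 4° C shaking; d2 + Cryptate Ab mix, 2 hr RT; HTRF read.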

The target in assay [5] is T2, KRas^G12R (Homo sapiens, UniProt P01116, G12R).
T2 construct: Biotinylated KRas (corresponding to amino acids 1-169, produced at Accelegan Inc.); biotin (biotinylated); purchased Accelegan Inc
T2 sequence (P01116 1-169 isoform P01116-2 G12R): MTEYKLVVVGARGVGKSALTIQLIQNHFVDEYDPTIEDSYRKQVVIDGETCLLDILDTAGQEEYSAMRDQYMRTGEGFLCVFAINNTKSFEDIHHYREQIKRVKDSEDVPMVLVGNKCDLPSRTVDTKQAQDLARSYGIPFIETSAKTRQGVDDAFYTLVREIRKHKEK
Description: KRas binding assay (TR-FRET tracer displacement), KRas G12R.

In assay [6] the test system is KRas-mediated phosphorylation of ERK in HCT116 cells. The experiment in a line: Inhibition of KRas-mediated phosphorylation of ERK (Cisbio HTRF pERK), HCT116 cells. The format is cell-based. The conditions noted are these: Homo sapiens; for inhibition at 0.1 µM: HCT-116, 3 h, single point, 100 nM compound, 3 hrs; for IC50: HCT-116, HTRF pERK. The procedure, abridged:
as §2

In assay [7] the target is T3, KRas^G12D (Homo sapiens, UniProt P01116, G12D).
T3 construct: Biotinylated KRas (corresponding to amino acids 1-169, produced at Accelegan Inc.); biotin (biotinylated); purchased Accelegan Inc
T3 sequence (P01116 1-169 isoform P01116-2 G12D): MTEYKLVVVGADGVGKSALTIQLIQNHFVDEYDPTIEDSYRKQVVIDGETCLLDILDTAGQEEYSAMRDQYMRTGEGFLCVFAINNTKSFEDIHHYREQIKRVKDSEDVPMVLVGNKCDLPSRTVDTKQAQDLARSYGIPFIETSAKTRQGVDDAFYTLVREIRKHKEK
The experiment in a line: KRas binding assay (TR-FRET tracer displacement), KRas G12D.

Assay [8] has as its system KRas-mediated phosphorylation of ERK in AsPC-1 cells. The experiment in a line: Inhibition of KRas-mediated phosphorylation of ERK (Cisbio HTRF pERK), AsPC-1 cells. The format is cell-based. To be noted: Homo sapiens, ASPC1, AsPC-1 cells; HTRF pERK. Summed up:
as §1

The subject of assay [9] is KRas-mediated phosphorylation of ERK in MKN1 cells. The experiment in a line: Inhibition of KRas-mediated phosphorylation of ERK (Cisbio HTRF pERK), MKN1 cells. The format is cell-based. The conditions noted are these: Homo sapiens, MKN-1. Summed up: (§3)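 Day 1 seeding: 6,000 cells per well, RPMI/10% FBS, left overnight at 37° C. with 5% CO2. Plates then stood covered for 4 h at room temperature prior to HTRF detection of pERK.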

Assay [10] has as its system KRas-mediated phosphorylation of ERK in PSN1 cells. The experiment in a line: Inhibition of KRas-mediated phosphorylation of ERK (Cisbio HTRF pERK), PSN1 cells. The format is cell-based. To be noted: Homo sapiens. Summed up:
as §3

Structures are written as SMILES.

These results are taken from US20260015350A1, “AZAQUINAZOLINE PAN-KRAS INHIBITORS” (Mirati Therapeutics, Inc., priority 2022, published 2026).

As a reminder, the inhibition is the drop in the measured response relative to a control, in per cent. One may read the IC50 as the concentration needed to halve the response being measured. A high value points to weaker potency in that assay.

Turning to `CCc1c(F)ccc2cc(O)cc(-c3ncc4c(N5CCCC6(CC(=O)N6)C5)nc(OC[C@]56CCCN5[C@H](COC(=O)N(C)C)CC6)nc4c3F)c12` (stereo partly drawn) [Example 715, ((3S,7aR)-7a-(((7-(8-ethyl-7-fluoro-3-hydroxynaphthalen-1-yl)-8-fluoro-4-(2-oxo-1,6-diazaspiro[3.5]nonan-6-yl)pyrido[4,3-d]pyrimidin-2-yl)oxy)methyl)hexahydro-1H-pyrrolizin-3-yl)methyl dimethylcarbamate], the inhibition at 0.1 µM came to 42% in [1] and 8% in assay [6]. The IC50 worked out at 153 nM in assay [2]; 2 nM in [3]; 344 nM in assay [4]; 4 nM in [5]; 4 nM in assay [7]; 97 nM in assay [8]. Moreover, the IC50 came to 43 nM in assay [9] and 3620 nM in assay [10].
As for `CCc1c(F)ccc2cc(O)cc(-c3ncc4c(N5CCCc6ncccc6C5)nc(OC[C@@]56CCCN5C[C@H](F)C6)nc4c3F)c12` [Example 579, 5-ethyl-6-fluoro-4-(8-fluoro-2-(((2R,7aS)-2-fluorotetrahydro-1H-pyrrolizin-7a(5H)-yl)methoxy)-4-(5,7,8,9-tetrahydro-6H-pyrido[3,2-c]azepin-6-yl)pyrido[4,3-d]pyrimidin-7-yl)naphthalen-2-ol], the IC50 in assay [1] was 481 nM; in [2], 369 nM; in assay [3] it was 6 nM; in assay [4], 357 nM; in assay [5] it was 3 nM; in [6], 1780 nM. Besides, the IC50 in assay [7] was 5 nM; in assay [8], 155 nM; in assay [9], 37 nM; in assay [10] it was above 10000 nM.
For the compound `CCc1c(F)ccc2cc(O)cc(-c3ncc4c(N5CCCC(O)(C(N)=O)C5)nc(OC[C@@]56CCCN5C[C@H](F)C6)nc4c3F)c12` (stereo partly drawn) [Example 574, 1-(7-(8-ethyl-7-fluoro-3-hydroxynaphthalen-1-yl)-8-fluoro-2-(((2R,7aS)-2-fluorohexahydro-1H-pyrrolizin-7a-yl)methoxy)pyrido[4,3-d]pyrimidin-4-yl)-3-hydroxypiperidine-3-carboxamide], the values for the inhibition at 0.1 µM in [1] and in [6] were 19% and 18%, respectively. The IC50 came to 1130 nM in assay [2]; 5 nM in [3]; 7 nM in assay [5]; 7 nM in assay [7]; 3420 nM in assay [8]; 78 nM in assay [9]. This compound came in with an IC50 in [10] above 10000 nM.
Consider `CCc1c(F)ccc2cc(O)cc(-c3ncc4c(N5CCCC6(CNS(=O)(=O)C6)C5)nc(OC[C@@]56CCCN5C[C@H](F)C6)nc4c3F)c12` (stereo partly drawn) [Example 644, 7-(7-(8-ethyl-7-fluoro-3-hydroxynaphthalen-1-yl)-8-fluoro-2-(((2R,7aS)-2-fluorohexahydro-1H-pyrrolizin-7a-yl)methoxy)pyrido[4,3-d]pyrimidin-4-yl)-2-thia-3,7-diazaspiro[4.5]decane 2,2-dioxide], for which the IC50 in assay [1] was 160 nM; in assay [2] it was 340 nM; in [3] it was below 2 nM; in assay [4] it was 299 nM; in [5] it was below 2 nM; in assay [6], 411 nM. The IC50 amounted to 3 nM in [7], 147 nM in assay [8], 10 nM in [9] and 2620 nM in [10].
With `CCc1c(F)ccc2c(Br)c(O)cc(-c3ncc4c(N5C[C@@H]6C[C@H](C5)[C@H](O)C6)nc(OC[C@@]56CCCN5C[C@H](F)C6)nc4c3F)c12` [Example 537, (1R,5R,6R)-3-(7-(4-bromo-8-ethyl-7-fluoro-3-hydroxynaphthalen-1-yl)-8-fluoro-2-(((2R,7aS)-2-fluorohexahydro-1H-pyrrolizin-7a-yl)methoxy)pyrido[4,3-d]pyrimidin-4-yl)-3-azabicyclo[3.2.1]octan-6-ol], the values for the inhibition at 0.1 µM in assay [1] and in [6] were 29% and 2%, respectively. Besides, the IC50 in assay [2] amounted to 1180 nM; in assay [3], 244 nM; in assay [5] it was 263 nM; in [7], 407 nM; in assay [8] it was 2020 nM; in assay [9], 1480 nM. In assay [10], the IC50 is above 10000 nM.
On to `CCc1c(F)ccc2cc(O)cc(-c3ncc4c(N5CCC(Cn6cccn6)C5)nc(OC[C@@]56CCCN5C[C@H](F)C6)nc4c3F)c12` (stereo partly drawn) [Example 587, 4-(4-(3-((1H-pyrazol-1-yl)methyl)pyrrolidin-1-yl)-8-fluoro-2-(((2R,7aS)-2-fluorotetrahydro-1H-pyrrolizin-7a(5H)-yl)methoxy)pyrido[4,3-d]pyrimidin-7-yl)-5-ethyl-6-fluoronaphthalen-2-ol], for which the inhibition at 0.1 µM is 6% in [1] and -12% in [6]. In addition, the IC50 was determined as 3090 nM in assay [2]; 64 nM in [3]; 74 nM in [5]; 323 nM in assay [7]; 2070 nM in assay [8]; 926 nM in assay [9]. In assay [10], this compound had an IC50 above 10000 nM.
`CCc1c(F)ccc2cc(O)cc(-c3ncc4c(N5CCC[C@@](C)(O)C5)nc(OCC5(CNC)CC5)nc4c3F)c12` [Example 696, (R)-1-(7-(8-ethyl-7-fluoro-3-hydroxynaphthalen-1-yl)-8-fluoro-2-((1-((methylamino)methyl)cyclopropyl)methoxy)pyrido[4,3-d]pyrimidin-4-yl)-3-methylpiperidin-3-ol]: the inhibition at 0.1 µM in assay [1] was found to be 21%; in assay [6], 5%. Moreover, the IC50 was 948 nM in [2]; below 2 nM in assay [3]; 3 nM in assay [5]; below 2 nM in [7]; 690 nM in assay [8]; 123 nM in [9]. This compound also had an IC50 in [10] above 10000 nM.
For `CCc1c(F)ccc2cc(O)cc(-c3ncc4c(N5CCCn6nc(S(=O)(=O)N(C)C)cc6C5)nc(OC[C@@]56CCCN5C[C@H](F)C6)nc4c3F)c12` [Example 685, 5-(7-(8-ethyl-7-fluoro-3-hydroxynaphthalen-1-yl)-8-fluoro-2-(((2R,7aS)-2-fluorohexahydro-1H-pyrrolizin-7a-yl)methoxy)pyrido[4,3-d]pyrimidin-4-yl)-N,N-dimethyl-5,6,7,8-tetrahydro-4H-pyrazolo[1,5-a][1,4]diazepine-2-sulfonamide], the 50% inhibitory concentration (IC50) in [1] amounted to 188 nM; in [2], 1670 nM; in [3] it was 8 nM; in assay [4] it was 1090 nM; in assay [5], 6 nM; in [6], 359 nM. Also, the IC50 was below 2 nM in assay [7], 245 nM in assay [8], 9 nM in assay [9] and above 10000 nM in [10].
As to `CCc1c(F)ccc2cc(O)cc(-c3ncc4c(N5C[C@H](F)C[C@@H](OC)C5)nc(OC[C@@]56CCCN5C[C@H](F)C6)nc4c3F)c12` [Example 557, 5-ethyl-6-fluoro-4-(8-fluoro-4-((3R,5R)-3-fluoro-5-methoxypiperidin-1-yl)-2-(((2R,7aS)-2-fluorohexahydro-1H-pyrrolizin-7a-yl)methoxy)pyrido[4,3-d]pyrimidin-7-yl)naphthalen-2-ol], the IC50 was determined as 165 nM in assay [1]; 216 nM in [2]; 6 nM in [3]; 174 nM in assay [4]; 4 nM in [5]; 517 nM in assay [6]. Moreover, the IC50 in [7] is 12 nM; in [8] it was 617 nM; in assay [9] it was 22 nM; in assay [10], above 10000 nM.
